The source of these data is patent US20230295167A1, “POTENT AND SELECTIVE INHIBITORS OF HER2” (DANA-FARBER CANCER INSTITUTE, INC., priority 2020, published 2023).

Each structure is given as a SMILES string.

Common to all, as to type: cell-based
Settings in all cases: 72 hours

For one assay, the target named is T1, EFGR SVD (Ba/F3 cells) (Homo sapiens, UniProt P00533, INS770SVD).
T1 construct: expressed in transfected cells; host or cells: Ba/F3
As to the kind of experiment: MTS assay, Ba/F3 cells, EFGR SVD. The method, then: (§1) The IC50 values of the compounds provided herein were measured against kinases in Ba/F3 cells.
(§2) Activities of representative compounds of the present application in inhibiting EGFR and HER2 were tested by MTS assay (abcam®) for Ba/F3 cells. For assays with Ba/F3 cells, 3000 cells were seeded for per well in 96-well plates and were exposed to the indicated compounds with a concentration of 3.3 to 10 μM for 72 hours.

A further assay addresses T2, EFGR WT (Ba/F3 cells) (Homo sapiens, UniProt P00533).
T2 construct: expressed in transfected cells; host or cells: Ba/F3
As to the kind of experiment: MTS assay, Ba/F3 cells, EFGR WT. The method, then:
as §1, §2

For another assay, the target named is T3, HER2 WT (Ba/F3 cells) (Homo sapiens, UniProt P04626).
T3 construct: expressed in transfected cells; host or cells: Ba/F3
As to the kind of experiment: MTS assay, Ba/F3 cells, HER2 WT. The method, then: as §1, §2
(In general: Tetrazolium assays rely on reduction of a dye to a coloured formazan, in cell work by metabolically active cells.)

The target of the next assay is T4, HER2 GSP (Ba/F3 cells) (Homo sapiens, UniProt P04626, INS780GSP).
T4 construct: expressed in transfected cells; host or cells: Ba/F3
The assay can be described thus: MTS assay, Ba/F3 cells, HER2 GSP. The method, then:
as §1, §2

The next assay deals with T5, HER2 YVMA (Ba/F3 cells) (Homo sapiens, UniProt P04626, INS775YVMA).
T5 construct: expressed in transfected cells; host or cells: Ba/F3
The assay can be described thus: MTS assay, Ba/F3 cells, HER2 YVMA. The method, then: as §1, §2

Another assay deals with T6, EFGR ASV (Ba/F3 cells) (Homo sapiens, UniProt P00533, INS769ASV).
T6 construct: expressed in transfected cells; host or cells: Ba/F3
The assay can be described thus: MTS assay, Ba/F3 cells, EFGR ASV. The method, then: as §1, §2

T6 sequence (P00533 with tags, fused parts or gaps INS769ASV): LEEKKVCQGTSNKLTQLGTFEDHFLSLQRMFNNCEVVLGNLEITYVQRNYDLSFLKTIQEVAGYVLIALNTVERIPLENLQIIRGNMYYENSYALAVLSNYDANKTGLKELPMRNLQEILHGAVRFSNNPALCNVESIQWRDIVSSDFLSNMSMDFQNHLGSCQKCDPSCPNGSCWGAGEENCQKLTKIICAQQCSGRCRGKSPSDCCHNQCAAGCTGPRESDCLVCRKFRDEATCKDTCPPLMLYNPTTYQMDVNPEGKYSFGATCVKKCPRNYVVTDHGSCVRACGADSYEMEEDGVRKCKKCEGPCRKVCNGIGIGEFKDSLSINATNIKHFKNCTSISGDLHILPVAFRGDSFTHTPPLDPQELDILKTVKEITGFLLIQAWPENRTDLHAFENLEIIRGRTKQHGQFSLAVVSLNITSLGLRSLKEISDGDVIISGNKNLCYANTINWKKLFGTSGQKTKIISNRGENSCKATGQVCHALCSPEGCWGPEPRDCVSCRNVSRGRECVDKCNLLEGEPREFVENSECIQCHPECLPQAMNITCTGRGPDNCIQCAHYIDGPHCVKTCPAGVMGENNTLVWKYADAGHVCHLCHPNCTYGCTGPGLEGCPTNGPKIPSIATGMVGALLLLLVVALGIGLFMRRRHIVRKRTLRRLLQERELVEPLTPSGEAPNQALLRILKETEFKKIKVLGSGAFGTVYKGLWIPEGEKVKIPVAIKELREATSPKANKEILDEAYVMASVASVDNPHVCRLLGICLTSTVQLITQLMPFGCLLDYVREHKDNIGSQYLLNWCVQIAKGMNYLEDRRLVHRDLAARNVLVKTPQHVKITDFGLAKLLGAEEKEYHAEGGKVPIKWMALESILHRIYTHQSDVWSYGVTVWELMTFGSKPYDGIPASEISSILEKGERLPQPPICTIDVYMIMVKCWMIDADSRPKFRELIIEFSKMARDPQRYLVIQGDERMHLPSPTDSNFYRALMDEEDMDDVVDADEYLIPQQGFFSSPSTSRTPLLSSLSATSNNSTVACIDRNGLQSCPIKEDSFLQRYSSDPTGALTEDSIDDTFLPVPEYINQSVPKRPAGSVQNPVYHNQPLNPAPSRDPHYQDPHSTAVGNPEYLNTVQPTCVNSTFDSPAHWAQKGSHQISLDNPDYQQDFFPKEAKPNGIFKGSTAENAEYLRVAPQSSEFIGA
T1 sequence (P00533 with tags, fused parts or gaps INS770SVD): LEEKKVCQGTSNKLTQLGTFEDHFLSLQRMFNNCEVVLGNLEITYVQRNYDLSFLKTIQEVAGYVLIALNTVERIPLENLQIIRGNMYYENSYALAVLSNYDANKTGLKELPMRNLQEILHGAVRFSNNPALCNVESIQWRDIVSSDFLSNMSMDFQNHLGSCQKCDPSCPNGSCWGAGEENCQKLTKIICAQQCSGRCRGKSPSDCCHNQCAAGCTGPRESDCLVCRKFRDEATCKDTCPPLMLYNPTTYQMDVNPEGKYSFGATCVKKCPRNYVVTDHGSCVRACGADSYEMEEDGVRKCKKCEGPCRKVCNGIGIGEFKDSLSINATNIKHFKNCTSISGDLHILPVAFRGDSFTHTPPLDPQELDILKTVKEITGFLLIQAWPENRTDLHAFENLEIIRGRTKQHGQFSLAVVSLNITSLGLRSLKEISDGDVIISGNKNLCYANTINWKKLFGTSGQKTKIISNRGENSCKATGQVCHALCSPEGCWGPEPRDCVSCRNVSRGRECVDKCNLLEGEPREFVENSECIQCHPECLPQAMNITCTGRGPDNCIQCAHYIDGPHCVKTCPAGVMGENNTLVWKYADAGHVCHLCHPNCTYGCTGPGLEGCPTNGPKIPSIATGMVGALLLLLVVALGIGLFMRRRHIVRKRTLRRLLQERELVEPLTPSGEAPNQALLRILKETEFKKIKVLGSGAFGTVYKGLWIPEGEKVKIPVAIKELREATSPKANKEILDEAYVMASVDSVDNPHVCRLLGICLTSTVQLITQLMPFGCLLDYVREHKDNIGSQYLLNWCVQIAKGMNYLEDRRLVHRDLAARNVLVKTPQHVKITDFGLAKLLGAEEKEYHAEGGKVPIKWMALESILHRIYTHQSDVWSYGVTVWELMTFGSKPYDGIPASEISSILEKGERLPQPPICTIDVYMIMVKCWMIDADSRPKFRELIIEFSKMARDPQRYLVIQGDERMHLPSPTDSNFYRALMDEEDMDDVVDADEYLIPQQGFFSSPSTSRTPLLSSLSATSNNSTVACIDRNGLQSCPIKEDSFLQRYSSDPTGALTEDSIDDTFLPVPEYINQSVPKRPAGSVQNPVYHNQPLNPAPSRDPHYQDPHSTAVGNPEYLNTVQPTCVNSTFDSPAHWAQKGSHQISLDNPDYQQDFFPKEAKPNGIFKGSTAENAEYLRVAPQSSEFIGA
T4 sequence (P04626 with tags, fused parts or gaps INS780GSP): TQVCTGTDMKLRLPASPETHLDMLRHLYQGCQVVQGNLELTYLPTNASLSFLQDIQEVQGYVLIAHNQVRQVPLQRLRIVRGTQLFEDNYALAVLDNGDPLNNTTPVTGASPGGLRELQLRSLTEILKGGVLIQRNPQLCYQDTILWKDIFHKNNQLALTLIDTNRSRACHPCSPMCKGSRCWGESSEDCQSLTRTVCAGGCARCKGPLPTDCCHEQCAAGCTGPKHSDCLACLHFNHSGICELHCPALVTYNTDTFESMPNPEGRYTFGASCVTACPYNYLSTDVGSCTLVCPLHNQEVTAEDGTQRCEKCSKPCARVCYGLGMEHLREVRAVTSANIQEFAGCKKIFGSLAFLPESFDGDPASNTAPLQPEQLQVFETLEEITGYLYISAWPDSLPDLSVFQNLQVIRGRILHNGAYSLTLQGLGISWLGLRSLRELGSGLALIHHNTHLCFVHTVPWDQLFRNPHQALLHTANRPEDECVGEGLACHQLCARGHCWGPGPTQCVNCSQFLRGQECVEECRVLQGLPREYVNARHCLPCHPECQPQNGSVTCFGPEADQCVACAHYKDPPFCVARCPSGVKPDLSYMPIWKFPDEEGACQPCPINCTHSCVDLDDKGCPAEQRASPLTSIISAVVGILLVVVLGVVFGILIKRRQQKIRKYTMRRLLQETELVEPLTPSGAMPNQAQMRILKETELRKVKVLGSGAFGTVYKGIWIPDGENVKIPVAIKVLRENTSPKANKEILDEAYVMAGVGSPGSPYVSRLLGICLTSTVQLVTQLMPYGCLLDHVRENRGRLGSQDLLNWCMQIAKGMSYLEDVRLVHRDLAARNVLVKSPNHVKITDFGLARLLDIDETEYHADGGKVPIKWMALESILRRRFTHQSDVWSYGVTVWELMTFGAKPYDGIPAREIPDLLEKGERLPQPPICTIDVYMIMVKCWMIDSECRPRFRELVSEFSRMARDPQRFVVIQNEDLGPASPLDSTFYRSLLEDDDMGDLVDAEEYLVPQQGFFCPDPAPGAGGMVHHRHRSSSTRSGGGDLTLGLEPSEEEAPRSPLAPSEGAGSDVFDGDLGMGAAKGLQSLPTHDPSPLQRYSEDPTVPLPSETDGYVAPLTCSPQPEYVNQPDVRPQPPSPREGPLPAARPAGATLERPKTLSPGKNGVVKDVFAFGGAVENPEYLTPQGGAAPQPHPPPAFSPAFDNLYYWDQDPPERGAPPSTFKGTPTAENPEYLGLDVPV
T3 sequence (P04626 23-1255): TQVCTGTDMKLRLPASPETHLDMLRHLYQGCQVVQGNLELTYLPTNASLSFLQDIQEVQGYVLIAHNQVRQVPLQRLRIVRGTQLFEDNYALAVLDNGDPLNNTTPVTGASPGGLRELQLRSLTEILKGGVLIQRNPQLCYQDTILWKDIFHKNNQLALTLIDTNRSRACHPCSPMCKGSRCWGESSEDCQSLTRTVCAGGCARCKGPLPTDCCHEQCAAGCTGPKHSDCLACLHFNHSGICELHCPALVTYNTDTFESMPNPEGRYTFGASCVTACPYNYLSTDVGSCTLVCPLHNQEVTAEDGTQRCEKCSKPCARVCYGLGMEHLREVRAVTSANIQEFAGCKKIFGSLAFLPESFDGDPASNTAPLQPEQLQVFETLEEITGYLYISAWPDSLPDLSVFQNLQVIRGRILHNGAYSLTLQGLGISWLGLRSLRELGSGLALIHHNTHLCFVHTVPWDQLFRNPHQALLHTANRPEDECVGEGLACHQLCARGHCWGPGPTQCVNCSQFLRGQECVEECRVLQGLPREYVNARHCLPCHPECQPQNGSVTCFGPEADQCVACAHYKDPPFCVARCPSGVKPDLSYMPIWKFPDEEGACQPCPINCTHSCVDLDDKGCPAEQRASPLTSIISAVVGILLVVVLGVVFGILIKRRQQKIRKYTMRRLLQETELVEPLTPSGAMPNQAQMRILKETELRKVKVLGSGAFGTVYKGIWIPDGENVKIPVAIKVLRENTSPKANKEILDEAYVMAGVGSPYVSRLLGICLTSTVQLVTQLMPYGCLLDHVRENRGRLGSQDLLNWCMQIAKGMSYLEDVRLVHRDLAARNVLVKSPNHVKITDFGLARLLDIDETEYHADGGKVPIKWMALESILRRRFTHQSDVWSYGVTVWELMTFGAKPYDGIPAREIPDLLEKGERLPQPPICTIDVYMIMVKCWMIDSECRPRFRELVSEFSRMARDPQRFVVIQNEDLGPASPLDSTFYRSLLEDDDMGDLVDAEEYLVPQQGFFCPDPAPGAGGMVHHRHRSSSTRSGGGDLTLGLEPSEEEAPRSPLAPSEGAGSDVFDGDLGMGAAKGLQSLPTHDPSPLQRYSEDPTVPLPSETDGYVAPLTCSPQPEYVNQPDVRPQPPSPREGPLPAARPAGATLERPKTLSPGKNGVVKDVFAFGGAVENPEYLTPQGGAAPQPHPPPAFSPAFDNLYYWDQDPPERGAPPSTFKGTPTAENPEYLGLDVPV

The term IC50 denotes the concentration needed to halve the response being measured. With `C=CC(=O)N1CCC[C@@H](n2nc(C(=O)Nc3cc(C)cc(CC(=O)N(C)C)c3)c3c(N)ncnc32)C1` [Compound 5], the IC50 came to 7.62 µM against EFGR SVD (Ba/F3 cells); 8.96 µM on EFGR WT (Ba/F3 cells); 4.08 µM against HER2 WT (Ba/F3 cells); 2.39 µM against HER2 GSP (Ba/F3 cells); 4.47 µM against HER2 YVMA (Ba/F3 cells); 5.72 µM at EFGR ASV (Ba/F3 cells).

For the compound `C=CC(=O)N1CCC[C@@H](n2nc(C(=O)Nc3ccc(-n4ccnc4)c(C)c3)c3c(N)ncnc32)C1` [Compound 10], the IC50 on HER2 WT (Ba/F3 cells) stood at 3.43 µM; on HER2 YVMA (Ba/F3 cells), 0.58 µM.

With `C=CC(=O)N1CCC[C@@H](n2nc(C(=O)Nc3ccc(Cn4ccnc4)c(C)c3)c3c(N)ncnc32)C1` [Compound 4], the IC50 stood at 6.04 µM at EFGR SVD (Ba/F3 cells); 7.16 µM at EFGR WT (Ba/F3 cells); 3.85 µM against HER2 WT (Ba/F3 cells); 1.44 µM against HER2 GSP (Ba/F3 cells); 3.16 µM at HER2 YVMA (Ba/F3 cells); 4.53 µM on EFGR ASV (Ba/F3 cells).

As to `C=CC(=O)N1CCC[C@@H](n2nc(C(=O)Nc3ccc(Oc4ccn5ncnc5c4)c(Cl)c3)c3c(N)ncnc32)C1` [Compound 3, (R)—N—(4-([1,2,4]triazolo[1,5-a]pyridin-7-yloxy)-3-chlorophenyl)-1-(1-acryloylpiperidin-3-yl)-4-amino-1H-pyrazolo[3,4-d]pyrimicline-3-carboxamide], the IC50 was determined as 2.61 µM against EFGR SVD (Ba/F3 cells); 2.11 µM on EFGR WT (Ba/F3 cells); 0.0981 µM against HER2 WT (Ba/F3 cells); 0.0786 µM against HER2 GSP (Ba/F3 cells); 0.0455 µM on HER2 YVMA (Ba/F3 cells); 1.46 µM on EFGR ASV (Ba/F3 cells).

As for `C=CC(=O)N1CCC[C@@H](n2nc(C(=O)Nc3ccc(C(=O)N4CCn5ccnc5C4)c(C)c3)c3c(N)ncnc32)C1` [Compound 6], the IC50 was 7.84 µM against EFGR SVD (Ba/F3 cells); 9.42 µM on EFGR WT (Ba/F3 cells); 5.79 µM against HER2 WT (Ba/F3 cells); 5.64 µM on HER2 GSP (Ba/F3 cells); 7.56 µM at HER2 YVMA (Ba/F3 cells); 6.81 µM on EFGR ASV (Ba/F3 cells).

For `C=CC(=O)N1CCC[C@@H](n2nc(C(=O)Nc3ccc(C(=O)N4CCn5ncnc5C4)c(C)c3)c3c(N)ncnc32)C1` [Compound 7], the IC50 against EFGR SVD (Ba/F3 cells) was 7.72 µM; at EFGR WT (Ba/F3 cells), 8.79 µM; against HER2 WT (Ba/F3 cells), 6.3 µM; on HER2 GSP (Ba/F3 cells) it was 6.29 µM; on HER2 YVMA (Ba/F3 cells) it was 8.84 µM; at EFGR ASV (Ba/F3 cells), 6.02 µM.

For the compound `C=CC(=O)N1CCC[C@@H](n2nc(C(=O)Nc3ccc(Oc4ccn5ncnc5c4)c(C)c3)c3c(N)ncnc32)C1` [Compound 2, (R)—N—(4-([1,2,4]triazolo[1,5-a]pyridin-7-yloxy)-3-methylphenyl)-1-(1-acryloylpiperidin-3-yl)-4-amino-1H-pyrazolo[3,4-d]pyrimidine-3-carboxamide], the IC50 against EFGR SVD (Ba/F3 cells) turned out to be 3.98 µM; at EFGR WT (Ba/F3 cells), 3.27 µM; against HER2 WT (Ba/F3 cells), 0.193 µM; against HER2 GSP (Ba/F3 cells), 0.0958 µM; at HER2 YVMA (Ba/F3 cells), 0.0559 µM; at EFGR ASV (Ba/F3 cells), 2.24 µM.

As for `C=CC(=O)N1CCC[C@@H](n2nc(C(=O)Nc3ccc(Cn4cncn4)c(C)c3)c3c(N)ncnc32)C1` [Compound 11], the results for the 50% inhibitory concentration (IC50) on EFGR WT (Ba/F3 cells), on HER2 WT (Ba/F3 cells) and against HER2 YVMA (Ba/F3 cells) were more than 10 µM, 5.96 µM and 1.33 µM, respectively.

As to `C=CC(=O)N1CCC[C@@H](n2nc(C(=O)Nc3ccc(CC(=O)N(C)C)c(C)c3C)c3c(N)ncnc32)C1` [TAS0728, reference compound], the IC50 against EFGR SVD (Ba/F3 cells) was determined as 4.48 µM; on EFGR WT (Ba/F3 cells), 0.921 µM; against HER2 WT (Ba/F3 cells), 0.164 µM; on HER2 GSP (Ba/F3 cells) it was 0.0643 µM; on HER2 YVMA (Ba/F3 cells), 0.206 µM; on EFGR ASV (Ba/F3 cells), 3.82 µM.

With `C=CC(=O)N1CCC[C@@H](n2nc(C(=O)Nc3ccc(CN4CCn5ncnc5C4)c(C)c3)c3c(N)ncnc32)C1` [Compound 8], the IC50 against EFGR SVD (Ba/F3 cells) is 6.75 µM; against EFGR WT (Ba/F3 cells) it was 9.46 µM; on HER2 WT (Ba/F3 cells) it was 3.24 µM; against HER2 GSP (Ba/F3 cells) it was 1.39 µM; on HER2 YVMA (Ba/F3 cells), 1.85 µM; on EFGR ASV (Ba/F3 cells), 4.27 µM.

For the compound `C=CC(=O)N1CCC[C@@H](n2nc(C(=O)Nc3ccc(CN4CCn5ccnc5C4)c(C)c3)c3c(N)ncnc32)C1` [Compound 9], the IC50 came to 5.59 µM against EFGR SVD (Ba/F3 cells); 7.92 µM against EFGR WT (Ba/F3 cells); 2.63 µM against HER2 WT (Ba/F3 cells); 1.29 µM against HER2 GSP (Ba/F3 cells); 1.38 µM against HER2 YVMA (Ba/F3 cells); 1.98 µM against EFGR ASV (Ba/F3 cells).

With `C=CC(=O)N1CCC[C@@H](n2nc(C(=O)Nc3ccc(Oc4ccn5ncnc5c4)c(C)c3C)c3c(N)ncnc32)C1` [Compound 1, (R)—N—(4-([1,2,4]triazolo[1,5-a]pyridin-7-yloxy)-2,3-dimethylphenyl)-1-(1-acryloylpiperidin-3-yl)-4-amino-1H-pyrazolo[3,4-d]pyrimidine-3-carboxamide], the IC50 is 2.62 µM on EFGR SVD (Ba/F3 cells); 1.38 µM at EFGR WT (Ba/F3 cells); 0.111 µM against HER2 WT (Ba/F3 cells); 0.0567 µM against HER2 GSP (Ba/F3 cells); 0.0322 µM against HER2 YVMA (Ba/F3 cells); 1.81 µM against EFGR ASV (Ba/F3 cells).
